Reference: patent US8846947B2, “Benzimidazoles and related analogs as sirtuin modulators” (GlaxoSmithKline LLC, priority 2008, dated 2014)
Like-named read-outs stand apart in the source and are kept apart here.

Molecular target: T1, SIRT1 (Homo sapiens, UniProt Q96EB6)
T1 sequence (Q96EB6 1-747): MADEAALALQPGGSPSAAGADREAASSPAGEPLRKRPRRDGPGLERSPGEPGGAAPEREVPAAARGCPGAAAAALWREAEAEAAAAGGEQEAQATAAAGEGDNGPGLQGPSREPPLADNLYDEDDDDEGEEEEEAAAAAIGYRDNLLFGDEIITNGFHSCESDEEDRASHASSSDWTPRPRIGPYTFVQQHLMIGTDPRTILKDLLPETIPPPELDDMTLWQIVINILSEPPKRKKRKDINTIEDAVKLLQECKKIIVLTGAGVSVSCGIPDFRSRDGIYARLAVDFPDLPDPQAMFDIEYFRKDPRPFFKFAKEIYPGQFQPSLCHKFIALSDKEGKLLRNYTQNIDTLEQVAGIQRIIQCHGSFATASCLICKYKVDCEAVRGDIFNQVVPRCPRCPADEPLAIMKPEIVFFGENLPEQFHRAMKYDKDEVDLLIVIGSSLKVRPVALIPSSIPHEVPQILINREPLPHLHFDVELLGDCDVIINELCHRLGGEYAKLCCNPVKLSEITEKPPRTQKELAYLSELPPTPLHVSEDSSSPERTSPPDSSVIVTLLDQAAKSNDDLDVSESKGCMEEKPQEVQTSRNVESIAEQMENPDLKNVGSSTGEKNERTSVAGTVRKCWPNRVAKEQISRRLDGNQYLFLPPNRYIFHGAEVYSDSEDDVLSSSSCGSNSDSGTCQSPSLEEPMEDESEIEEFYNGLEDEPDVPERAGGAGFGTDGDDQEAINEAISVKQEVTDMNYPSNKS
Assay: Mass spectrometry based SIRT1 deacetylase activation assay (acetylated p53-derived peptide substrate)
Type: biochemical

[1] = 0.5 μM peptide substrate, 120 μM βNAD+, 10 nM SIRT1, 25 minutes at 25° C.
[2] = 0.5 μM peptide substrate, 120 μM βNAD+, 10 nM SIRT1, 25 min at 25° C.
[3] = 0.5 μM peptide substrate, 120 μM βNAD+, 10 nM SIRT1, 25 min at 25° C., read-out: EC1.5

EC1.5 | Fold Act. (percent maximum fold activation) | EC1.5 [1] | Fold Act. (percent maximum fold activation) [1] | Fold Act. (percent maximum fold activation) [2] | EC1.5 [3] | SMILES
– | – | B (EC1.5 1-25 uM) | A (Fold activation >200%) | – | – | CS(=O)(=O)c1ccc(F)cc1-c1nc2c(C(=O)Nc3cccnc3)cccc2[nH]1 [Compound 659]
– | – | A (EC1.5<1.0 uM) | A (Fold activation >200%) | – | – | CC1(C)CN(c2ccc(-c3nc4c(C(=O)Nc5ccccn5)cccc4[nH]3)c(C(F)(F)F)c2)CCO1 [Compound 707]
– | – | C (EC1.5 >25 uM) | B (Fold Activation <200%) | – | – | O=C(Nc1nccs1)c1cccc2[nH]c(-c3cc(N4CCCC4)ccc3C(F)(F)F)nc12 [Compound 664]
– | – | A (EC1.5<1.0 uM) | A (Fold activation >200%) | – | – | O=C(Nc1nccs1)c1cc(N2CCOCC2)cc2[nH]c(-c3cc(F)ccc3C(F)(F)F)nc12 [Compound 644]
– | – | A (EC1.5<1.0 uM) | A (Fold activation >200%) | – | – | O=C(Nc1cccc(OC[C@H](O)CO)c1)c1cccc2[nH]c(-c3cc(F)cc(F)c3)nc12 [Compound 786]
– | – | A (EC1.5<1.0 uM) | A (Fold activation >200%) | – | – | O=C(Nc1cccc(OC[C@H](O)CO)c1)c1cccc2[nH]c(-c3ccccc3F)nc12 [Compound 784]
– | – | A (EC1.5<1.0 uM) | A (Fold activation >200%) | – | – | O=C(Nc1ccccn1)c1cc(N2CCOCC2)cc2[nH]c(-c3ccc(F)cc3C(F)(F)F)nc12 [Compound 690]
– | – | A (EC1.5<1.0 uM) | A (Fold activation >200%) | – | – | O=C(Nc1cccc(OC2CCNC2)c1)c1cccc2[nH]c(-c3ccc(F)cc3C(F)(F)F)nc12 (stereo not drawn) [Compound 660]
– | – | A (EC1.5<1.0 uM) | A (Fold activation >200%) | – | – | O=C(Nc1ccccn1)c1cccc2[nH]c(-c3ccc(OCCN4CCOCC4)cc3C(F)F)nc12 [Compound 723, 2-(2-(difluoromethyl)-4-(2-morpholinoethoxy)phenyl)-N-(pyridin-2-yl)-1H-benzo[d]imidazole-7-carboxamide]
– | – | A (EC1.5<1.0 uM) | A (Fold activation >200%) | – | – | O=C(Nc1ccccn1)c1cc(F)cc2nc(-c3ccc(F)cc3C(F)F)[nH]c12 [Compound 826]
– | – | A (EC1.5<1.0 uM) | A (Fold activation >200%) | – | – | O=C(Nc1cccnn1)c1cncc2[nH]c(-c3ccc(N4CCCC4)cc3C(F)F)nc12 [Compound 802]

Continued, compound first:

SMILES | EC1.5 | Fold Act. (percent maximum fold activation) | EC1.5 [1] | Fold Act. (percent maximum fold activation) [1] | Fold Act. (percent maximum fold activation) [2] | EC1.5 [3]
O=C(Nc1nccs1)c1cccc2[nH]c(-c3ccc(F)cc3C(F)(F)F)nc12 [Compound 263] | A (EC1.5<1.0 uM) | A (Fold activation >200%) | – | – | – | –
O=C(Nc1cccnn1)c1cccc2[nH]c(-c3ccc(F)cc3C(F)(F)F)nc12 [Compound 465] | – | – | – | – | A (Fold activation >200%) | < 1000 nM
Cc1nc(N2CCOCC2)sc1-c1nc2c(C(=O)Nc3cccnc3)cccc2[nH]1 [Compound 413] | – | – | – | – | A (Fold activation >200%) | < 1000 nM
O=C(Nc1nccs1)c1cccc2[nH]c(-c3ccc(F)c(Cl)c3)nc12 [Compound 235] | B (EC1.5 1-25 uM) | A (Fold activation >200%) | – | – | – | –
O=C(Nc1ccccn1)c1cccc2[nH]c(-c3cc(F)ccc3C(F)(F)F)nc12 [Compound 323] | A (EC1.5<1.0 uM) | A (Fold activation >200%) | – | – | – | –
Cc1cc(NC(=O)c2cccc3[nH]c(-c4ccnn4-c4ccccc4)nc23)no1 [Compound 466] | – | – | – | – | A (Fold activation >200%) | 1000 to 25000 nM
O=C(Nc1nccs1)c1cccc2[nH]c(-c3cccc(-c4ccccc4)c3)nc12 [Compound 222] | C (EC1.5 >25 uM) | B (Fold Activation <200%) | – | – | – | –
O=C(Nc1ccccn1)c1cccc2[nH]c(-c3ccccc3OCCN3CCC(F)(F)C3)nc12 [Compound 615] | – | – | C (EC1.5 >25 uM) | B (Fold Activation <200%) | – | –
Cc1ccc(OCCN2CCOCC2)c(-c2nc3c(C(=O)Nc4ccccn4)cccc3[nH]2)c1 [Compound 546] | – | – | – | – | A (Fold activation >200%) | 1000 to 25000 nM
O=C(Nc1cccc2[nH]c(-c3ccc(Cl)cc3C(F)(F)F)nc12)c1cscn1 [Compound 416] | – | – | – | – | B (Fold Activation <200%) | 1000 to 25000 nM
O=C(NC1CCNCC1)c1cccc2[nH]c(-c3ccc(Cl)cc3C(F)(F)F)nc12 [Compound 453] | – | – | – | – | B (Fold Activation <200%) | > 25000 nM
O=C(Nc1cccnn1)c1cccc2[nH]c(-c3ccc(Cl)cc3C(F)(F)F)nc12 [Compound 432] | – | – | – | – | A (Fold activation >200%) | < 1000 nM
O=C(Nc1nccs1)c1cccc2[nH]c(-c3cccnc3)nc12 [Compound 227] | B (EC1.5 1-25 uM) | A (Fold activation >200%) | – | – | – | –
Cc1nc(NC(=O)c2cccc3[nH]c(-c4cccc(N5CCOCC5)c4)nc23)sc1C [Compound 382] | A (EC1.5<1.0 uM) | A (Fold activation >200%) | – | – | – | –
O=C(NC1CCOCC1)c1cccc2[nH]c(-c3ccc(Cl)cc3C(F)(F)F)nc12 [Compound 434] | – | – | – | – | B (Fold Activation <200%) | 1000 to 25000 nM
O=C(Nc1nccs1)c1cccc2[nH]c(-c3ccc(N4CC[C@H](F)C4)cc3C(F)(F)F)nc12 [Compound 606] | – | – | A (EC1.5<1.0 uM) | A (Fold activation >200%) | – | –
Cc1nc(-c2ccccc2)c(-c2nc3c(C(=O)Nc4ccccn4)cccc3[nH]2)s1 [Compound 369] | A (EC1.5<1.0 uM) | A (Fold activation >200%) | – | – | – | –
O=C(Nc1cccc2[nH]c(-c3cc(F)ccc3C(F)(F)F)nc12)c1cnccn1 [Compound 387] | B (EC1.5 1-25 uM) | A (Fold activation >200%) | – | – | – | –
O=C(Nc1nc(-c2ccccc2)cs1)c1cccc2[nH]c(-c3cccc(C(F)(F)F)c3)nc12 [Compound 283] | B (EC1.5 1-25 uM) | A (Fold activation >200%) | – | – | – | –
COc1cc(C(=O)Nc2nccs2)c2nc(-c3ccc(Cl)cc3C(F)(F)F)[nH]c2c1 [Compound 635] | – | – | A (EC1.5<1.0 uM) | A (Fold activation >200%) | – | –
O=C(Nc1nccs1)c1cccc2[nH]c(-c3cccc(OC4CCNCC4)c3)nc12 [Compound 426] | – | – | – | – | A (Fold activation >200%) | < 1000 nM
Cc1nc(-c2ccccc2)sc1-c1nc2c(C(=O)Nc3nccs3)cccc2[nH]1 [Compound 408] | – | – | – | – | A (Fold activation >200%) | < 1000 nM
O=C(Nc1ccncc1)c1cccc2[nH]c(-c3cc(F)ccc3C(F)(F)F)nc12 [Compound 316] | A (EC1.5<1.0 uM) | A (Fold activation >200%) | – | – | – | –
CN(C)CCNc1ccc(-c2nc3c(C(=O)Nc4nccs4)cccc3[nH]2)cn1 [Compound 259] | B (EC1.5 1-25 uM) | A (Fold activation >200%) | – | – | – | –
O=C(Nc1nccs1)c1cccc2[nH]c(-c3ccc(OC4CCNC4)cc3)nc12 (stereo not drawn) [Compound 441] | – | – | – | – | A (Fold activation >200%) | < 1000 nM
